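Step 1: Grow cells in 96-well plates. Step 2: Expose to compound for 48 hours at 5 concentrations. Step 3: Interpolate endpoints linearly; if unreached, use highest concentration. Abbreviation: GI50, concentration required for 50% inhibition of growth.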 Calls of active or inactive are those of the source. Cut-off read from the data, not from the text of the source: active = GI50 up to about 1.1 µM and inactive = higher.
Columns and labels:
Test in all cases: NCI tumour cell line growth inhibition, 48 h
[1] = tested on: NCI-H226
[2] = tested on: TK-10
[3] = tested on: SW-620
[4] = tested on: HCT-15
[5] = tested on: CAKI-1
[6] = tested on: ACHN
[7] = tested on: MDA-MB-231
[8] = tested on: SK-MEL-28
[9] = tested on: HCT-116
[10] = tested on: COLO 205
[11] = tested on: OVCAR-4
[12] = tested on: T47D
[13] = tested on: MOLT-4
[14] = tested on: SK-OV-3
[15] = tested on: KM12
[16] = tested on: SNB-19
[17] = tested on: EKVX
[18] = tested on: NCI-H23
[19] = tested on: A549
[20] = tested on: UACC-62

Row | Compound | GI50 [1] | GI50 [2] | GI50 [3] | GI50 [4] [µM] | GI50 [5] | GI50 [6] | GI50 [7] | GI50 [8] | GI50 [9] | GI50 [10] | GI50 [11] | GI50 [12] | GI50 [13] | GI50 [14] | GI50 [15] | GI50 [16] | GI50 [17] | GI50 [18] | GI50 [19] | GI50 [20]
1 | COc1c(O)c(OC)c(C(=O)/C=C/c2ccccc2)c(O)c1OC [PEDICIN] | 29.4 µM (inactive) | 36.3 µM (inactive) | 27.9 µM (inactive) | 28.8 | 56.1 µM (inactive) | 23.6 µM (inactive) | 21.3 µM (inactive) | 33.3 µM (inactive) | 17.7 µM (inactive) | 41.7 µM (inactive) | 27.9 µM (inactive) | 20.9 µM (inactive) | 30.5 µM (inactive) | > 100 µM (inactive) | 30.3 µM (inactive) | 92 µM (inactive) | 23.1 µM (inactive) |  |  | 
2 | CCN(CC)CC1CCCCN1CC(=O)N1c2ccccc2NC(=O)CC1C (centres undefined) | > 100 µM (inactive) | > 100 µM (inactive) | > 100 µM (inactive) | > 100 | > 100 µM (inactive) | > 100 µM (inactive) | > 100 µM (inactive) | > 100 µM (inactive) | > 100 µM (inactive) | > 100 µM (inactive) | > 100 µM (inactive) | > 100 µM (inactive) | > 100 µM (inactive) | > 100 µM (inactive) | > 100 µM (inactive) | > 100 µM (inactive) | > 100 µM (inactive) | > 100 µM (inactive) | > 100 µM (inactive) | 
3 | CC(=O)O[C@H]1C[C@H]2[C@@H]([C@H](OC(C)=O)C[C@@H]3CC4(CC[C@@]32C)OOC2(CCCCC2)OO4)[C@@H]2CC[C@H]([C@H](C)CCC(=O)O)[C@@]12C | 7.29 µM (inactive) | 12.4 µM (inactive) | 10.2 µM (inactive) | 4.39 | 7.1 µM (inactive) | 7.24 µM (inactive) | 14.1 µM (inactive) | 11.4 µM (inactive) | 5.81 µM (inactive) | 3.91 µM (inactive) | 2.55 µM (inactive) | 7 µM (inactive) | 9.02 µM (inactive) | 13.7 µM (inactive) | 3.56 µM (inactive) | 6.71 µM (inactive) | 1.95 µM (inactive) | 4.13 µM (inactive) | 2.66 µM (inactive) | 
4 | NC(Cc1ccccc1)C(=O)OCN1C(=O)C2C3C=CC(C2C1=O)C1C(=O)N(COC(=O)C(N)Cc2ccccc2)C(=O)C31 (centres undefined) | > 100 µM (inactive) | > 100 µM (inactive) | 28.8 µM (inactive) | 27.4 | > 100 µM (inactive) | > 100 µM (inactive) | 78 µM (inactive) | 67.6 µM (inactive) | 42.5 µM (inactive) | 75.9 µM (inactive) |  | > 100 µM (inactive) | 22.4 µM (inactive) |  |  | > 100 µM (inactive) | > 100 µM (inactive) | 66.2 µM (inactive) | > 100 µM (inactive) | 38.8 µM (inactive)
5 | CC(=O)C1C(=O)C(=O)N(c2cccc(C)c2C)C1=O (centres undefined) | > 100 µM (inactive) | > 100 µM (inactive) |  |  | > 100 µM (inactive) | > 100 µM (inactive) | > 100 µM (inactive) |  | > 100 µM (inactive) | > 100 µM (inactive) |  | > 100 µM (inactive) | 22.8 µM (inactive) | > 100 µM (inactive) | > 100 µM (inactive) | > 100 µM (inactive) | > 100 µM (inactive) | > 100 µM (inactive) | > 100 µM (inactive) | > 100 µM (inactive)
6 | Cc1ccc(-n2nncc2[Si](C)(C)C)s1 | > 100 µM (inactive) | > 100 µM (inactive) | > 100 µM (inactive) | > 100 | > 100 µM (inactive) | > 100 µM (inactive) | > 100 µM (inactive) | > 100 µM (inactive) | > 100 µM (inactive) | > 100 µM (inactive) | > 100 µM (inactive) | > 100 µM (inactive) |  | > 100 µM (inactive) |  | > 100 µM (inactive) |  | > 100 µM (inactive) | > 100 µM (inactive) | > 100 µM (inactive)
7 | CC(=O)O/N=C1\C=Cc2c(no[n+]2[O-])C1=O | > 100 µM (inactive) | 15.6 µM (inactive) | 3.37 µM (inactive) | 19.8 | 20.5 µM (inactive) | 17.1 µM (inactive) | 18.9 µM (inactive) | 21.6 µM (inactive) | 14.3 µM (inactive) | 9.23 µM (inactive) | 17.2 µM (inactive) | 25.6 µM (inactive) | 10.4 µM (inactive) |  | 18 µM (inactive) | > 100 µM (inactive) | 17.3 µM (inactive) | 20 µM (inactive) | 16.1 µM (inactive) | 16 µM (inactive)
8 | COc1ccc(OC2OC(CO)C(O)C(O)C2O)cc1 (centres undefined) | > 100 µM (inactive) | > 100 µM (inactive) | > 100 µM (inactive) | > 100 | > 100 µM (inactive) | > 100 µM (inactive) | > 100 µM (inactive) | > 100 µM (inactive) | > 100 µM (inactive) | > 100 µM (inactive) |  | > 100 µM (inactive) | > 100 µM (inactive) | > 100 µM (inactive) | > 100 µM (inactive) | > 100 µM (inactive) | > 100 µM (inactive) | > 100 µM (inactive) | > 100 µM (inactive) | > 100 µM (inactive)
9 | S=C(N/N=C\C=N/NC(=S)N1CCCCC1)N1CCCCC1 | 0.489 µM (active) | 1.61 µM (inactive) | 0.0977 µM (active) | 0.0802 | 0.619 µM (active) | 0.267 µM (active) | > 96.2 µM (inactive) | 0.682 µM (active) | 0.124 µM (active) | 0.592 µM (active) |  | 0.287 µM (active) |  | 0.692 µM (active) | 0.54 µM (active) | 0.41 µM (active) | 0.515 µM (active) | 1.16 µM (inactive) | 0.107 µM (active) | 0.594 µM (active)
10 | Cn1nnnc1SC(F)(F)c1nc2ccccc2o1 | > 100 µM (inactive) | > 100 µM (inactive) | > 100 µM (inactive) | > 100 | > 100 µM (inactive) | > 100 µM (inactive) | > 100 µM (inactive) | > 100 µM (inactive) | > 100 µM (inactive) | > 100 µM (inactive) | > 100 µM (inactive) | > 100 µM (inactive) | 24.1 µM (inactive) | > 100 µM (inactive) | 35.9 µM (inactive) |  |  | > 100 µM (inactive) | > 100 µM (inactive) | > 100 µM (inactive)
11 | CC1=NN(c2nc(N)nc(-c3ccccc3S(N)(=O)=O)n2)C(C)(C)C1 | 9.2 µM (inactive) | 9.51 µM (inactive) | 25.8 µM (inactive) | 2.76 | 3.37 µM (inactive) | 4.44 µM (inactive) | 22.2 µM (inactive) | 27.9 µM (inactive) | 10.2 µM (inactive) |  | 13.2 µM (inactive) | 23.8 µM (inactive) | 5.19 µM (inactive) | 9.02 µM (inactive) | 29.8 µM (inactive) |  | 36.1 µM (inactive) | 20.1 µM (inactive) |  | 
12 | COC(=O)CCC(C)[C@H]1CCC2C3C(C[C@H](OC(C)=O)[C@@]21C)[C@@]1(C)CCC2(C[C@H]1C[C@H]3OC(C)=O)OOC1(CCCCCCC1)OO2 (some centres undefined) | 6.79 µM (inactive) | 6.53 µM (inactive) | 6.3 µM (inactive) | 5.52 | 2.55 µM (inactive) | 4.09 µM (inactive) | 8.26 µM (inactive) | > 100 µM (inactive) | 2.74 µM (inactive) | 7.62 µM (inactive) | 39 µM (inactive) | 2.02 µM (inactive) | 3.12 µM (inactive) | > 100 µM (inactive) | 4.88 µM (inactive) | > 100 µM (inactive) | 1.36 µM (inactive) | 6.55 µM (inactive) | 4.56 µM (inactive) | 
13 | CCOC(=O)c1nc2ccc(C(F)(F)F)cc2nc1NCc1cc(OC)c(OC)c(OC)c1 | > 100 µM (inactive) | > 100 µM (inactive) | 54.1 µM (inactive) | 48.9 | > 100 µM (inactive) | 50.6 µM (inactive) | 60 µM (inactive) | 34 µM (inactive) | 30 µM (inactive) | 29.3 µM (inactive) |  | 27.6 µM (inactive) | 70.8 µM (inactive) |  | 32.9 µM (inactive) | > 100 µM (inactive) | 60.3 µM (inactive) | 59.2 µM (inactive) | 73.3 µM (inactive) | 53.5 µM (inactive)
14 | CC1C2(C)OC(=N)C(C#N)(C(c3ccco3)O2)C1(C#N)C#N (centres undefined) | > 100 µM (inactive) | 37.9 µM (inactive) | 16.4 µM (inactive) | 12.5 | 14.4 µM (inactive) | 36.6 µM (inactive) | 19.1 µM (inactive) | 18.4 µM (inactive) | 26.7 µM (inactive) | 13.6 µM (inactive) |  | 17.8 µM (inactive) | 32.2 µM (inactive) | > 100 µM (inactive) | 59.8 µM (inactive) | 42.5 µM (inactive) | 34 µM (inactive) | 29.9 µM (inactive) | > 100 µM (inactive) | 17.7 µM (inactive)
15 | CCOC(=O)c1[nH]cc(C)c1-c1cccn1-c1ccc(Cl)cc1[N+](=O)[O-] | 16.7 µM (inactive) | 14.4 µM (inactive) | 23.1 µM (inactive) | 32.1 | 31.7 µM (inactive) | 23.9 µM (inactive) | 8.24 µM (inactive) | 22.8 µM (inactive) | 16.7 µM (inactive) | 17.8 µM (inactive) | 32.5 µM (inactive) | 31 µM (inactive) | 17.1 µM (inactive) |  | 20.1 µM (inactive) |  | 20.6 µM (inactive) | 23.9 µM (inactive) | 23 µM (inactive) | 18.2 µM (inactive)
